This passage reports Kd results from PubChem BioAssay AID608 (Sanford-Burnham Center for Chemical Genomics, 2007).

Structures are written as SMILES. “And” between values parts separate entries of the source, which are not always exact repeats. Equal values may be shown once. The source made the active and inactive calls. How the calls were made is not given here.

In this test the target is Peptidyl-prolyl cis-trans isomerase FKBP1A (Homo sapiens) (UniProt P62942). Nature of the test: FKBP12 binders, biophysical, NMR detection (AID 608). Particulars: NMR binding, purified FKBP12.
Chain of Peptidyl-prolyl cis-trans isomerase FKBP1A (Homo sapiens) (P62942 whole entry, looked up): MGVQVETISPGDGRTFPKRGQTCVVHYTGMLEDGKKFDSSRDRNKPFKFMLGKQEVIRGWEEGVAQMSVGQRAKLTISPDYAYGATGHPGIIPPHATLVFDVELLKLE
Take `CC(=O)O[C@@H]1CC2C(C)(C)C(=O)C3OC3[C@]2(C)C2CC[C@@]3(C)[C@H](c4ccoc4)OC(=O)C4OC43[C@@]21C` (some centres undefined): the Kd (in general, the concentration at which binding is half-saturated) is > 4 mM (inactive).

Regarding `CC(=O)O[C@H]1CC[C@]2(C)C3CC[C@@]4(C)C(CC5O[C@@]6(CCC(C)CO6)[C@@H](C)C54)C3CC[C@@H]2C1` (some centres undefined), the Kd is > 4 mM (inactive).

In the case of `O=C(O)C1CC(=O)N(CCc2ccc(Cl)cc2)C1` (centres undefined), the Kd was > 4 mM (inactive).

Turning to `O=C(c1ccco1)N1CCn2c1nc1ccccc12`, the Kd is > 4 mM (inactive).

Turning to `C[C@@H]1[C@H]2[C@H](O[C@@H]3O[C@H](CO)[C@@H](O)[C@H](O)[C@H]3O)OC=C(C(=O)O)[C@H]2C[C@@H]1O`, the Kd is > 4 mM (inactive).

Consider `Cn1ccnc1SCc1cc(=O)[nH]c2ccccc12`, for which the Kd is > 4 mM (inactive).

On to `COc1cccc(C(=O)N2CCOCC2)c1`, for which the Kd was > 4 mM (inactive).

Turning to `NC(=O)c1ccc(NC(=O)C2CC2)cc1`, the Kd is > 4 mM (inactive).

`CC(=O)Nc1ccc(C(=O)NC2CCSC2=O)cc1` (centres undefined): the Kd was > 4 mM (inactive).

Regarding `CC(C)=CCc1c2c(c(O)c3c(=O)c(O)c(-c4ccccc4)oc13)C=CC(C)(C)O2`, the Kd was > 4 mM (inactive).

For `O=C(O)c1ccc2nccnc2c1`, the Kd was > 4 mM (inactive).

Turning to `CC1(C)C[C@@H]2C(=O)CC[C@H]3O[C@]3(C)CC[C@H]21`, the Kd was > 4 mM (inactive).

Regarding `Oc1ccc([C@H]2Oc3cc(O)cc(O)c3C[C@H]2O)cc1`, the Kd was > 4 mM (inactive).

On to `COC(=O)c1cccc(Cn2nnc3ccccc3c2=O)c1`, for which the Kd is > 4 mM (inactive).

Take `NC(=O)Cn1nnc(-c2ccc(C(F)(F)F)cc2)n1`: the Kd was > 4 mM (inactive).

In the case of `CC1(C)CC2(CCO1)NCCN1C(=O)CSC12` (centres undefined), the Kd was > 4 mM (inactive).

Turning to `O=C1Nc2ccccc2C1(O)Cc1ccncc1` (centres undefined), the Kd is > 4 mM (inactive).

As to `Nc1ccc2c(c1)N1CCN=C1S2`, the Kd is > 4 mM (inactive).

Consider `OCC1CCCCCN1` (centres undefined), for which the Kd is > 4 mM (inactive).

As to `COc1cc(C(C)=O)ccc1OC(=O)N1CCOCC1`, the Kd is > 4 mM (inactive).

As to `COc1ccccc1C(=O)Nc1ccccn1`, the Kd is > 4 mM (inactive).

As to `O=C(c1ccccc1)N1CCNCC1`, the Kd was > 4 mM (inactive).

Regarding `O=C(Nn1cnnc1)c1ccccc1Cl`, the Kd is > 4 mM (inactive).

For `O=C1NC(=S)S/C1=C/c1ccncc1`, the Kd was > 4 mM (inactive).

In the case of `CN1C(=O)N(C)C2NC(=O)NC21` (centres undefined), the Kd is > 4 mM (inactive).

Consider `O=C(c1ccc2c(c1)OCO2)N1CCC2(CC1)OCCO2`, for which the Kd is > 4 mM (inactive).

On to `Clc1ccccc1OCc1nc(-c2ccccn2)no1`, for which the Kd is > 4 mM (inactive).

On to `Cc1sc2nc(-c3ccco3)oc(=O)c2c1C`, for which the Kd is > 4 mM (inactive).

In the case of `O=C(NCN1CCOCC1)c1cnccn1`, the Kd is > 4 mM (inactive).

Consider `CC(=O)c1sc(NC(=O)C=C(C)C)nc1C`, for which the Kd was > 4 mM (inactive).

`C=C1C(=O)O[C@@H]2C[C@@]3(C)CCC[C@H](C)C3=C[C@H]12`: the Kd is > 4 mM (inactive).

Take `COCc1cc(C)nc2sc(C(=O)OC)c(N)c12`: the Kd was > 4 mM (inactive).

Regarding `O=[N+]([O-])c1c[n+]([O-])n(-c2ccccc2)n1`, the Kd was > 4 mM (inactive).

With `O=C1N=c2ccccc2=C1c1[nH]c(=S)[nH]c1O`, the Kd is > 4 mM (inactive).

As for `NC(=O)CSc1nc2ccccc2[nH]1`, the Kd was > 4 mM (inactive).

As to `O=C(c1ccc(F)cc1)N1CCOCC1`, the Kd is > 4 mM (inactive).

As for `CCOc1cc(C)c(Cl)cc1S(=O)(=O)N(C)C`, the Kd is > 4 mM (inactive).

With `Cn1cnnc1Sc1ncnc(N)c1[N+](=O)[O-]`, the Kd was > 4 mM (inactive).

As to `NC1CN2CCC1CC2` (centres undefined), the Kd is > 4 mM (inactive).

With `NN1C(=O)CSC1=Nc1ccccc1`, the Kd was > 4 mM (inactive).

`COc1ccc2c(c1OC)C(=O)O[C@@H]2[C@@H]1c2cc3c(cc2CCN1C)OCO3`: the Kd is > 4 mM (inactive).

On to `CC(=O)Oc1c2c(c3c(c1CC=C(C)C)O[C@]14C(=C[C@@H]5CC1C(C)(C)OC4(C/C=C(\C)C(=O)O)C5=O)C3=O)OC(C)(CCC=C(C)C)C=C2` (some centres undefined), for which the Kd is > 4 mM (inactive).

On to `Cc1nc(SCC#N)c2c3c(sc2n1)CCC3`, for which the Kd is > 4 mM (inactive).

In the case of `COc1ccc(N2C(=O)CCC2=O)c(OC)c1`, the Kd is > 4 mM (inactive).

In the case of `COc1cccc(-c2nc3ccc(O)cc3c(=O)o2)c1`, the Kd is > 4 mM (inactive).

As for `CC1(C)N=C2C(=[N+]1[O-])CCC/C2=N\O`, the Kd was > 4 mM (inactive).

Take `Nc1c(F)c(F)nc(F)c1F`: the Kd was > 4 mM (inactive).

As for `CCOC(=O)C1=C(O)CCN(C)C1`, the Kd was > 4 mM (inactive).

For `C=C[C@H]1CN2CC[C@H]1C[C@@H]2[C@@H](O)c1ccnc2ccc(OC)cc12`, the Kd was > 4 mM (inactive).

For the compound `O=C1CS/C(=N/S(=O)(=O)c2ccccc2)N1`, the Kd is > 4 mM (inactive).

For the compound `NC(=O)NCCCC(N)C(=O)O` (centres undefined), the Kd is > 4 mM (inactive).

For `CCOC(=O)Cc1cc(=O)n2[nH]c(C)cc2n1`, the Kd was > 4 mM (inactive).

Turning to `COc1cc(C)nc(N(CCO)CCO)n1`, the Kd is > 4 mM (inactive).

With `O=C1CSC(c2ccc3c(c2)OCO3)N1` (centres undefined), the Kd was > 4 mM (inactive).

For the compound `COc1ccc2cc1Oc1ccc(cc1)C[C@H]1c3cc(c(OC)cc3CCN1C)Oc1c(OC)c(OC)cc3c1[C@H](C2)N(C)CC3`, the Kd was > 4 mM (inactive).

On to `CCOC(=O)c1c[nH]c2c(F)cccc2c1=O`, for which the Kd was > 4 mM (inactive).

Regarding `O=C(c1ccco1)N1CCN(c2ccc(Cl)cc2)CC1`, the Kd was > 4 mM (inactive).

Take `CS(=O)(=O)Nc1nnc(Cc2ccccc2)s1`: the Kd was > 4 mM (inactive).

As to `c1ccc(SCc2nc(-c3ccncc3)no2)cc1`, the Kd is 0.314 mM and 0.167 mM.

Turning to `CC1(C)CC2(C)N(N)C(=O)CN2C(=S)N1` (centres undefined), the Kd is > 4 mM (inactive).

Regarding `O=C(O)c1ccc(Nc2nncc(=O)[nH]2)cc1`, the Kd is > 4 mM (inactive).

In the case of `O=C(CSc1nc2ccccc2[nH]1)N1CCCCC1`, the Kd was > 4 mM (inactive).

For the compound `NC1CCN(Cc2ccccc2)CC1`, the Kd was > 4 mM (inactive).

As to `CC(=O)OC1CCC2(C)C3CC(=O)C4(C)C(CC5OC6(CCC(C)CO6)[C@@H](C)C54)C3CC[C@H]2C1` (some centres undefined), the Kd is > 4 mM (inactive).

On to `O=C(c1sc2cc(F)ccc2c1Cl)N1CCOCC1`, for which the Kd result was “inactive”.

As to `O=C(O)c1cnc2sc3ccccc3n2c1=O`, the Kd was > 4 mM (inactive).

In the case of `CC(C)c1c(O)c(-c2cc3c(c(C(C)C)c2O)CCC2C(C)(C)CCC[C@]32C)cc2c1CCC1C(C)(C)CCC[C@]21C` (some centres undefined), the Kd was > 4 mM (inactive).

For `O=C(Nc1nncs1)Oc1ccccc1`, the Kd is > 4 mM (inactive).

Consider `O=C1NC(=O)C(C(=S)Nc2ccccc2)C(=O)N1`, for which the Kd was > 4 mM (inactive).

Turning to `Cc1cc(O)cc(=O)o1`, the Kd is > 4 mM (inactive).

Consider `O=c1cnnc(Nc2ccc(O)cc2)[nH]1`, for which the Kd was > 4 mM (inactive).

For `O=C1NC(=S)N/C1=C\c1ccccc1F`, the Kd was > 4 mM (inactive).

As for `O=C(NCc1ccccc1)c1ccc[n+]([O-])c1`, the Kd is > 4 mM (inactive).

For the compound `NC(N)=NCCCCN=C(N)N`, the Kd was > 4 mM (inactive).

Consider `CCOC(=O)c1c(C)nc2c(C#N)cnn2c1C`, for which the Kd is > 4 mM (inactive).

As to `CC1=CC2C(CC1=O)C(C)=CCC2C(C)C` (centres undefined), the Kd is > 4 mM (inactive).

With `Nc1nc2[nH]c(=O)c(=O)[nH]c2c(=O)[nH]1`, the Kd was > 4 mM (inactive).

In the case of `COc1cccc(Oc2ccc(N)cc2)c1`, the Kd was > 4 mM (inactive).

With `COc1nc(-c2ccccc2)ccc1-c1noc(C)n1`, the Kd was > 4 mM (inactive).

In the case of `COC1CC(O[C@H]2CC[C@]3(C=O)C4CC[C@]5(C)C(C6=CC(=O)OC6)CC[C@]5(O)C4CC[C@]3(O)C2)OC(C)C1O` (some centres undefined), the Kd was > 4 mM (inactive).

Regarding `S=c1[nH]nc(-c2cccnc2)n1Cc1ccccc1`, the Kd was > 4 mM (inactive).

As to `CC(=O)Oc1c2c(c(CC=C(C)C)c3c1C(=O)C1=C[C@@H]4CC5C(C)(C)OC(C/C=C(\C)C(=O)O)(C4=O)[C@@]15O3)OC(C)(CCC=C(C)C)C=C2` (some centres undefined), the Kd was > 4 mM (inactive).

On to `O=C(O)C1CC2CC1CCC2O` (centres undefined), for which the Kd was > 4 mM (inactive).

`O=c1[nH]cc(Nc2ccccc2)c(=O)[nH]1`: the Kd was > 4 mM (inactive).

As to `COc1ccc(-c2nc(N)n(C(C)=O)n2)cc1`, the Kd is > 4 mM (inactive).

For the compound `Cc1nnc(SCc2cccs2)[nH]c1=O`, the Kd is > 4 mM (inactive).

Regarding `Cc1ccc(C(=O)n2cnnc2N)cc1C`, the Kd is > 4 mM (inactive).

As for `OC12CC3CC(CC(C3)C1)C2`, the Kd is > 4 mM (inactive).

With `Cc1ncc(C[n+]2csc3ccccc32)c(N)n1`, the Kd is > 4 mM (inactive).

Take `CN1C(=O)/C(=C\c2ccc[nH]2)SC1=S`: the Kd is > 4 mM (inactive).

For `O=c1nc(NCc2ccco2)sc2ncccc12`, the Kd is > 4 mM (inactive).

For `OCc1cccc2nonc12`, the Kd is > 4 mM (inactive).

In the case of `Cn1c(=O)c2c(ncn2CCNC2=NCCC2)n(C)c1=O`, the Kd was > 4 mM (inactive).

As to `CCC(=O)NC(=S)Nc1ccc(O)cc1`, the Kd is > 4 mM (inactive).

For the compound `CC1Oc2ccccc2OC1C(=O)N1CCOCC1` (centres undefined), the Kd was > 4 mM (inactive).

On to `NS(=O)(=O)c1ccc(NC(=S)NC2CC2)cc1`, for which the Kd is > 4 mM (inactive).

`COc1ccc(-c2nnsc2N)cc1`: the Kd was > 4 mM (inactive).

As to `Nc1nc2ncc(CNc3ccc(C(=O)N[C@@H](CCC(=O)O)C(=O)O)cc3)nc2c(=O)[nH]1`, the Kd is > 4 mM (inactive).

On to `CSc1nnc2ccc(-c3cccnc3)nn12`, for which the Kd was > 4 mM (inactive).
